The subject of assay [1] is C3A spheroids. Description: Toxicological analysis: Cell Titer-Glo cell viability in C3A spheroids, 4 days with repeat dosing. The assay is classed as cell-based. On the procedure: Spheroids were created using the liquid overlay technique as previously described.[38] Briefly, 100 μl of sterile 1.5% Agarose (high gelling temperature-Sigma Aldrich) in EMEM was added per well to flat-bottomed 96-well cell culture plates to form a low-adherence surface. Additionally Ultra Low Adherence plates (ULA-Corning) were used as a comparison. C3A cells were seeded at 500, 750, 1000, 1500, 2000 or 2500 cells per well in 100 μl media and left for 72 hours to form spheroids. Media was renewed twice weekly and spheroids were cultured for up to 32 days. Images of spheroids in culture were taken by phase-contrast microscopy through 4× objective and maximum spheroid diameter measured. Spheroids were treated at day 3 of culture with hepatotoxic compounds acetaminophen, fialuridine, diclofenac and trovafloxacin diluted in 0.5% DMSO in EMEM for 4 days with repeat dosing on day 2. Monolayer C3A cells were treated with compounds for 24 hours. Cell viability was analysed using Cell Titer-Glo assay (Promega) according to the manufacturer's instructions and plotted as a percentage of untreated control.
For orientation: In ATP-based viability assays light output follows the ATP content of the culture.

In assay [2] the test system is C3A 2D monolayer. Description: Toxicological analysis: Cell Titer-Glo cell viability in C3A 2D monolayer, 24 hours. Type of assay: cell-based. On the procedure:
C3A cells were maintained in EMEM (LGC Standards) supplemented with 10% FBS and 1% penicillin–streptomycin under standard cell culture conditions. For 2D monolayer experiments C3A cells were seeded and left to adhere for 24 hours and confirmed to be 100% confluent before analyses. Spheroids were treated at day 3 of culture with hepatotoxic compounds acetaminophen, fialuridine, diclofenac and trovafloxacin diluted in 0.5% DMSO in EMEM for 4 days with repeat dosing on day 2. Monolayer C3A cells were treated with compounds for 24 hours. Cell viability was analysed using Cell Titer-Glo assay (Promega) according to the manufacturer's instructions and plotted as a percentage of untreated control.

For assay [3], the system named is HepG2 monolayer cultures. Also noted: method as in PMID 9862754. Conditions: cited from earlier work.
For assay [4], the system named is MRP2 and Pgp transporters. Description: Analysis of transporter function with CMFDA substrate in C3A spheroids. Type of assay: cell-based. Particulars: 30 min. On the procedure: (§1) Spheroids and monolayers were incubated with 5 μM 5-chloromethylfluorescein diacetate (CMFDA-Life Technologies) with or without 25 μM MK571 (MRP inhibitor) and 12.5 μM PSC833 (Pgp inhibitor) in EMEM for 30 min at 37 °C. CMFDA is membrane permeable until it enters cell and is converted to glutathione-methylfluorescein (GSMF), a cell impermeable substrate for MRP and Pgp.[40] Cells and spheroids were washed in PBS and prepared for immunofluorescence as described above.

Assay [5] relates to MRP2 and Pgp transporters. Description: Analysis of transporter function with CMFDA substrate in 2D monolayer C3A cells. Type of assay: cell-based. Conditions: 5 μM CMFDA, 30 min. As for the experimental part: as §1
Setting [6] is: Homo sapiens, spheroids from 1000 C3A cells, treated at day 3 for 4 days with repeat dosing on day 2, read-out: IC50 value in C3A spheroids.
Setting [7] is: Homo sapiens, monolayer C3A cells treated for 24 hours, read-out: IC50 value in C3A 2D monolayer (converted).

Data on five molecules can be found in paper PMC5047049, “Characterization of a functional C3A liver spheroid model” (Toxicology Research, 2016).

As usually defined, the IC50 is the concentration that gives 50% inhibition.

“Also recorded” adds a separate entry of the source. Where two headings read alike, the source gives them in different places.

With `N[C@@H]1[C@H]2CN(c3nc4c(cc3F)c(=O)c(C(=O)O)cn4-c3ccc(F)cc3F)C[C@@H]12` [Trovafloxacin], the results for the IC50 in assay [1] (setting [6]) and in assay [2] (setting [7]) were 65 µM and 440 µM, respectively.

For `O=C(O)Cc1ccccc1Nc1c(Cl)cccc1Cl` [Diclofenac], the half-maximal inhibitory concentration (IC50) in assay [1] (setting [6]) is 295 µM; in assay [3], around 763 µM. The “IC50 value in C3A 2D monolayer” value is reported as “Non toxic” in assay [2] (monolayer C3A cells treated for 24 hours) and “did not have a toxic response at the concentrations used” in assay [2] (monolayer C3A cells treated for 24 hours, listed as diclofenac).

For the molecule `CC(=O)Nc1ccc(O)cc1` [Paracetamol], the half-inhibitory concentration (IC50) was 7200 µM in assay [1] (96 h, C3A spheroids, 4 days repeat dosing, read-out: IC50 in spheroids); 7210 µM in assay [1] (setting [6]); 33800 µM in assay [2] (C3A monolayer, 24 hours, read-out: IC50 in monolayer culture); 33800 µM in assay [2] (setting [7]).

As for `O=c1[nH]c(=O)n([C@@H]2O[C@H](CO)[C@@H](O)[C@@H]2F)cc1I` [Fialuridine], the half-maximal inhibitory concentration (IC50) was 206 µM in assay [1] (setting [6]) and 380 µM in assay [2] (setting [7]).

In the case of `CC(=O)Oc1ccc2c(c1)Oc1cc(OC(C)=O)ccc1C21OC(=O)c2cc(CCl)ccc21` [CMFDA, 5-chloromethylfluorescein diacetate], the “CMFDA localisation in spheroids” value in assay [4] (5 μM CMFDA, C3A spheroids) is “accumulation and co-localisation of the compound within secondary canalicular-like structures; also recorded: accumulation of CMFDA in the bile canalicular structures”. Besides, in assay [4] (with 25 μM MK571 (MRP inhibitor) and 12.5 μM PSC833 (Pgp inhibitor)), the “CMFDA localisation in spheroids with MRP and Pgp transporters blocked” value is recorded as “retained in the cell cytoplasm”. In assay [5], the “CMFDA localisation in 2D monolayer” value is “retained CMFDA (green) within the cell cytoplasm”.
